Assay results published in patent EP0053325A1, “Antimicrobic triazole derivatives” (BAYER AG, priority 1980, dated 1982).

Assays:
[1] = tested on: Dermatophyten und Schimmelpilze; Hefen; experiment: Antimycotic in-vitro activity, serial dilution test; format: cell-based; settings: Reihenverdünnungstest, 5 x 10^4 Keimen/ml Substrat, 20°C, 24 bis 96 Stunden; compared with prior-art compounds (A) and (B)
Method: Die in-vitro-Prüfungen wurden im Reihenverdünnungstest mit Keiminokula von durchschnittlich 5 x 10^4 Keimen/ml Substrat durchgeführt. Als Nährmedium dienten • a) für Dermatophyten und Schimmelpilze: Sabourand's milieu d'épreuve • b) für Hefen: Fleischextrakt-Traubenzucker-Bouillon.
Die Bebrütungstemperatur betrug 20°C, die Bebrütungsdauer lag bei 24 bis 96 Stunden.

[2] = tested on: Candida; experiment: Antimycotic in-vivo activity (oral) in mouse candidosis; settings: Mäuse SPF-CF1 infected i.v. with 1 - 2 x 10^6 Candida-Zellen, 50 - 100mg/ kg one hour before and seven hours after infection, survival, compared with (A) and (B)
Method: Mäuse vom Typ SPF-CF1 wurden intravenös mit 1 - 2 x 10^6 logarithmisch wachsenden Candida-Zellen, die in physiologischer Kochsalzlösung suspendiert werden, infiziert. Eine Stunde vor und sieben Stunden nach der Infektion werden die Tiere mit jeweils 50 - 100mg/ kg Körpergewicht der Präparate oral behandelt.
Unbehandelte Tiere starben 3 bis 6 Tage post infektionen. Die Ueberlebensrate am 6.Tag post infektionem betrug bei unbehandelten Kontrolltieren etwa 5 %. In diesem Test zeigen z.B. die erfindungsgemäßen Verbindungen 3, 9.

Structure (SMILES)	antimykotische Wirkung [1]	Wirkung [2]
CC(C)(C)C(O)/C(=C\c1ccc(C(F)(F)F)c(Cl)c1)n1cncn1 (stereo not drawn) [Beispiel 20]	bessere antimykotische Wirkung als die aus dem Stand der Technik bekannten Verbindungen (A) und (B)	–
CC(C)(C)C(O)/C(=C\c1ccc([N+](=O)[O-])cc1)n1cncn1 (stereo not drawn) [Beispiel 10]	bessere antimykotische Wirkung als die aus dem Stand der Technik bekannten Verbindungen (A) und (B)	bessere Wirkung als die aus dem Stand der Technik bekannten Verbindungen (A) und (B)
CC(C)(C)C(O)/C(=C\c1ccc(OC(F)(F)F)cc1)n1cncn1 (stereo not drawn) [Beispiel 14]	bessere antimykotische Wirkung als die aus dem Stand der Technik bekannten Verbindungen (A) und (B)	bessere Wirkung als die aus dem Stand der Technik bekannten Verbindungen (A) und (B)
CC(C)(C)C(O)/C(=C/c1ccc([N+](=O)[O-])cc1)n1cncn1 (stereo not drawn) [Beispiel 9]	–	bessere Wirkung als die aus dem Stand der Technik bekannten Verbindungen (A) und (B)
CC(C)(C)C(O)/C(=C\c1ccc(OC(F)(F)F)c(Cl)c1)n1cncn1 (stereo not drawn) [Beispiel 22]	bessere antimykotische Wirkung als die aus dem Stand der Technik bekannten Verbindungen (A) und (B)	–
CC(C)(C)C(O)/C(=C\c1ccc(C(F)(F)F)cc1Cl)n1cncn1 (stereo not drawn) [Beispiel 12]	bessere antimykotische Wirkung als die aus dem Stand der Technik bekannten Verbindungen (A) und (B)	bessere Wirkung als die aus dem Stand der Technik bekannten Verbindungen (A) und (B)
CC(C)(C)C(O)C(=Cc1ccc(C(F)(F)F)cc1)n1cncn1 (stereo not drawn) [Beispiel 3, 4,4-Dimethyl-2-(1,2,4-triazol-1-yl)-1-(4-trifluormethylphenyl)-1-penten-3-ol]	bessere antimykotische Wirkung als die aus dem Stand der Technik bekannten Verbindungen (A) und (B)	bessere Wirkung als die aus dem Stand der Technik bekannten Verbindungen (A) und (B)
CC(C)(C)C(O)/C(=C\c1ccc(SC(F)(F)F)cc1)n1cncn1 (stereo not drawn) [Beispiel 16]	bessere antimykotische Wirkung als die aus dem Stand der Technik bekannten Verbindungen (A) und (B)	–
CC(C)(C)C(O)/C(=C\c1ccccc1C(F)(F)F)n1cncn1 (stereo not drawn) [Beispiel 2, 4.4-Dimethyl-2-(1,2,4-triazol-1-yl)-1-(2-trifluormethylphenyl)-1-penten-3-ol]	bessere antimykotische Wirkung als die aus dem Stand der Technik bekannten Verbindungen (A) und (B)	–
CC(C)(C)C(O)/C(=C\c1ccc(C(F)(F)F)cc1)n1cncn1 (stereo not drawn) [Beispiel 18]	bessere antimykotische Wirkung als die aus dem Stand der Technik bekannten Verbindungen (A) und (B)	bessere Wirkung als die aus dem Stand der Technik bekannten Verbindungen (A) und (B)
